Test results taken from patent US9695133B2, “Quinazolinone-based oncogenic-RAS-selective lethal compounds and their use” (THE TRUSTEES OF COLUMBIA UNIVERSITY IN THE CITY OF NEW YORK, priority 2012, dated 2017).
Like-named read-outs stand apart in the source and are kept apart here. Values belong to the compound of their own block, whether it stands above or below them.

What was measured:
BJeLR cells = assay: RSL testing: growth inhibition (alamar blue) in BJeLR cells; type: cell-based; conditions: Homo sapiens, BJeLR
Method: Cell viability was determined using alamar blue and percent growth inhibition computed as described previously (Id.).

[1] = Water solubility by microplate nephelometer; type: physicochemical
Method: The water solubility was determined using a microplate nephelometer (NEPHELOstar, BMG labtech, Cary, N.C.).

[2] = Mouse liver microsome metabolic stability test; type: in vitro ADME; conditions: mouse liver microsome assay
[3] = Postdose observations in the pharmacokinetic study; type: in vivo, male C57BL6/j mice; conditions: single 20 mg/kg IV or PO
in vivo = conditions: male, C57BL6/j, mouse, 20 mg/kg
[4] = male, C57BL6/j, mouse, in vivo, po, 20 mg/kg
[5] = iv, Brain Concentration, individual mice
[6] = iv, Brain-Plasma Concentration Ratio, Mean
[7] = iv, Brain-Plasma Concentration Ratio, individual mice
[8] = po, Brain Concentration, individual mice
[9] = po, Brain-Plasma Concentration Ratio, Mean
[10] = po, Brain-Plasma Concentration Ratio, individual mice

SMILES: CCOc1ccccc1-n1c(C(C)N2CCN(C(=O)COc3ccc(Cl)cc3)CC2)nc2ccccc2c1=O (stereo not shown) [erastin]
- EC50 (BJeLR cells; read-out: EC50 (BJELR)): 1800 nM
- EC50 (BJeLR cells; read-out: EC50 (BJeLR)): 1780 nM
- solubility [1]: poor solubility
- metabolic stability [2]: metabolic instability

- postdose observations [3]: No abnormal observations were noted
- MRT inf (in vivo; iv): 9.91 h
- Tmax (in vivo; iv): 0.5 h
- half-life (in vivo; iv): 6.41 h
- concentration at 0.5 h (in vivo; iv, Brain Concentration, Mean): 96.1 ng/g
- concentration at 1 h (in vivo; iv, Brain Concentration, Mean): 85.5 ng/g
- concentration at 2 h (in vivo; iv, Brain Concentration, Mean): 73.7 ng/g
- concentration at 4 h (in vivo; iv, Brain Concentration, Mean): 48 ng/g
- concentration at 8 h (in vivo; iv, Brain Concentration, Mean): 30 ng/g
- concentration at 12 h (in vivo; iv, Brain Concentration, Mean): 29.8 ng/g
- concentration at 0.5 h (in vivo; [5]): 116 ng/g
- concentration at 1 h (in vivo; [5]): 76.6 ng/g
- concentration at 2 h (in vivo; [5]): 79.1 ng/g
- concentration at 4 h (in vivo; [5]): 34.1 ng/g
- Kp at 0.5 hr (in vivo; [6]): 0.03
- Kp at 1 h (in vivo; [6]): 0.08
- Kp at 2 h (in vivo; [6]): 0.07
- Kp at 4 h (in vivo; [6]): 0.13
- Kp at 8 h (in vivo; [6]): 0.23
- Kp at 12 h (in vivo; [6]): 0.44
- Kp at 0.5 hr (in vivo; [7]): 0.03
- Kp at 2 h (in vivo; [7]): 0.09
- Kp at 4 h (in vivo; [7]): 0.17
- Tmax (in vivo; po): 4 h
- concentration at 1 h (in vivo; po, Brain Concentration, Mean): 14.9 ng/g
- concentration at 2 h (in vivo; po, Brain Concentration, Mean): 12.3 ng/g
- concentration at 4 h (in vivo; po, Brain Concentration, Mean): 15.6 ng/g
- concentration at 1 h (in vivo; [8]): 10.9 ng/g
- concentration at 2 h (in vivo; [8]): 15.1 ng/g
- concentration at 4 h (in vivo; [8]): 14.2 ng/g
- Kp at 1 h (in vivo; [9]): 0.01
- Kp at 2 h (in vivo; [9]): 0.01
- Kp at 4 hr (in vivo; [9]): 0.02
- Kp at 1 h (in vivo; [10]): 0.01
- Kp at 2 h (in vivo; [10]): 0.01
- Kp at 4 hr (in vivo; [10]): 0.02
- solubility ([1]; water, nephelometry): improved solubility
- Brain Concentration, individual mice ([4]; 1 h): 18.92 ng/g
- Brain-Plasma Concentration Ratio, individual mice ([4]; 1 h): 0.01 mL/g
- Brain Concentration, individual mice ([4]; 2 h): 9.49 ng/g
- Brain-Plasma Concentration Ratio, individual mice ([4]; 2 h): 0.01 mL/g
SMILES: CC(C)Oc1ccc(CN2CCNCC2)cc1-n1c(CN2CCN(C(=O)COc3ccc(Cl)cc3)CC2)nc2ccccc2c1=O [PE, 2-((4-(2-(4-chlorophenoxy)ethanoyl)piperazin-1-yl)methyl)-3-(2-isopropoxy-5-(piperazin-1-ylmethyl)phenyl)quinazolin-4(3H)-one]
- metabolic stability [2]: improved metabolic stability in comparison to erastin
